Reference: patent publication US20190125701A1 (priority 2016, published 2019)
“Also recorded” adds a separate entry of the source.

How the values were obtained:
mCMV [1] = details: for antiviral activity after drug removal: 24 hrs pre-treatment, compounds removed before virus inoculation; for effect on mCMV infection: cells pre-treated with drug prior to mCMV inoculation; for CMV inhibition with delayed drug addition: compounds added 2 to 12 hours after virus inoculation; for number of infected cells: drug at low concentration (100 μM) present 0-48 hpi, NIH/3T3, MOI 0.1
mCMV [2] = test: Plaque size assay; details: varying drug concentrations, measured 5 dpi
Sindbis virus (SIN) = format: cell-based
[3] = test system: Vesicular Stomatitis Virus; format: cell-based, VSV
[4] = cited from earlier work
mCMV [5] = test: Ethidium homodimer (EthD-1) cytotoxicity assay of mCMV-infected NIH/3T3 cells; details: NIH/3T3, 24 hrs pre-treatment, MOI 0.4, 72 hpi
CMV IE1/2 promoter = details: NIH/3T3, VPD 1 mM for 24 hours, plasmid transfection
Procedure: To investigate the effects on the immediate early phase of viral replication, NIH/3T3 cells exposed to VPD (1 mM) for 24 hours, were transfected with a CMV promoter (IE1/IE2)-driven reporter plasmid (pCMV-tdTomato) expressing the red fluorescent protein tdTomato.

mCMV [6] = test: Viral binding and fusion experiments (4° C./37° C. shift); details: 100 μM, NIH/3T3, MOI 0.1, infectivity at 48 hpi
mCMV [7] = test: Virucidal activity assay on free virions; details: 100 μM with undiluted mCMV for 2 hours at 4° C. or 37° C., then diluted to 10 nM
mCMV [8] = test: Viral yield reduction assay after short drug exposure; details: 100 μM for 2 hrs at viral challenge, supernatants at 72 hpi
hCMV [9] = test: Quantification of hCMV-GFP infection in normal human dermal fibroblasts and U-373 glioblastoma cells; details: pre-treatment prior to hCMV-GFP inoculation
mCMV [10] = format: in vivo, mouse; details: for parameters of somatic development: body and tail length, eyelid opening, fur maturation; for CMV load in liver and lungs: treated PND 1 to 10, plaque assay at PND 12
hCMV [11] = test: hCMV virus yield reduction assay in human fetal astrocytes; format: cell-based, human CMV
Text: In the virus yield reduction assay, after viral adsorption, cells were washed twice with PBS and replenished with fresh medium containing the compounds to be tested. At 72 hpi medium was collected and titered by plaque assay using HDF monolayers to assess the drug-mediated inhibition of virus replication in human fetal brain astrocytes.

mCMV [12] = details: P2 to P14
mCMV [13] = test: Vertical pole test; format: in vivo, mouse; details: P28-P30; 3 out of 20 infected untreated failed
Procedure: Briefly, mice were individually placed head-downward at the top of a vertical rough-surfaced pole (diameter, 8 mm; height, 55 cm) and allowed to descend in a round of habituation. Then, mice were placed head-upward at the top of the pole. The time required for the animal to descend to the floor was recorded as the locomotor activity time (TLA), with a maximum duration of 120 seconds. If a mouse fell, was unable to turn downward or was unable to climb down, a default locomotor activity time value was recorded as 120 seconds. Each mouse was given three trials with a 30 second-recovery period between trials.

[14] = test system: Vesicular Stomatitis Virus; details: Ornaghi, et al., 2016; cited from earlier work
mCMV [15] = test: Hindlimb clasping test; details: P28-P30
mCMV [16] = test: Three-chamber test of sociability and social novelty; format: in vivo, mouse; details: 5 weeks of age
Text: Sociability and preference for social novelty were investigated at 5 weeks of age in a three-compartment apparatus (Yang, et al., 2011, Curr. Protoc. Neurosci. Chapter 8:Unit 8.26). Initially, test and control animals were allowed to explore the apparatus freely for a 10-min period (habituation). For the social approach paradigm, an unfamiliar conspecific (same sex, similar age and weight) animal was placed into one of the side compartments and restrained by a small wire object (‘social cage’). The compartment on the other side contained an empty wire object (‘empty cage’). The test subject was then released into the center compartment and allowed to explore the three-compartment apparatus freely for 10 min. Behavior was videotaped and assessed for the time(s) that the test subject spent in the three compartments and in close proximity to the social and empty cages. For the social-novelty paradigm, another unfamiliar conspecific animal was placed in the previously empty wire object (‘novel cage’). The behavior of the test mouse was recorded for 10 min and assessed for the time spent exploring the known and novel conspecifics.

mCMV [17] = test: Exploratory activity in adapted small open field; format: in vivo, mouse; details: P30-40, 3-min session
hCMV [18] = test: hCMV attachment and internalization in human fetal astrocytes by qPCR; details: 100 μM
mCMV [19] = test: Challenging beam traversal test; format: in vivo, mouse; details: P28-P30
hCMV [20] = test: hCMV infectivity assay in human fetal astrocytes; details: 100 μM, 1 h pre-treatment, MOI 0.1, 48 hpi

Row | Molecule | CMV plaque size (mCMV [2]) | antiviral activity after drug removal (mCMV [1]) | effect on mCMV infection (mCMV [1]) | CMV inhibition with delayed drug addition (mCMV [1]) | number of infected cells (mCMV [1]) [%] | CMV binding to cells (mCMV [6]) | virucidal activity on virions (mCMV [7]) | virus production (mCMV [8]) | effect on human CMV infection (hCMV [9]) | parameters of somatic development (mCMV [10]) | CMV load in liver and lungs (mCMV [10]) | also measured
1 | ivermectin |  |  |  |  |  |  |  |  |  |  |  | CMV infection compared to control (mCMV [1]; ivermectin used at 1 μM, CMV type not stated): 99%±9%
2 | CCCC(C(N)=O)C(C)CC (stereo not shown) [SPD, 3-methyl-2-propylpentanamide] | slightly more effective than either valpromide or valnoctamide; also recorded: reduced |  |  |  |  |  |  |  |  |  |  | 
3 | CCCC(CCC)C(N)=O [VPD, 2-propylpentanamide] | reduced | loss of antiviral activity | robust dose-dependent inhibitory effect | no inhibition | 50 | inhibit CMV binding to cells | No direct inactivation of virions | significantly decreases virus production | inhibited human CMV infection | markedly improved | markedly decreased | SIN infection compared to control (Sindbis virus (SIN)): 107%±3%; VSV infection compared to control [3]: 101%±5%; fraction metabolized to VPA ([4]; humans): > 80%; viral-mediated cell death / cell survival (mCMV [5]): increased cell survival; number of red (tdTomato) cells compared to control (CMV IE1/2 promoter): 96%±4%
4 | CCC(C)C(C(N)=O)C(C)C (stereo not shown) [SID, 2-isopropyl-3-methylpentanamide] | reduced |  |  |  |  |  |  |  |  |  |  | 
5 | CCC(C)C(CC)C(N)=O (stereo not shown) [VCD, 2-ethyl-3-methylpentanamide] | reduced | loss of antiviral activity | inhibited | no inhibition | 50 | inhibit CMV binding to cells | No direct inactivation of virions | significantly decreases virus production | inhibited | markedly improved | markedly decreased | reduction in viral titer (hCMV [11]; 100 μM VCD versus vehicle): approximately 100 fold; viral titer (hCMV [11]; 100 μM VCD, MOI 0.1, vehicle 4.92×10^5±5.84×10^4): 6.31×10^3±3.06×10^3 PFU/ml; acquisition of neurological milestones in infected pups (mCMV [12]): timely acquisition of neurological milestones; conversion to corresponding free acid (valnoctic acid) ([4]; in vivo): little conversion; mice failing the vertical pole test (mCMV [13]): no VCD-treated mice or uninfected controls failed; antiviral effect on vesicular stomatitis virus [14]: no antiviral effect; hindlimb clasping response (mCMV [15]): completely reversed this altered behavior; preference for social novelty (mCMV [16]): restored social novelty responses; rearing and nose-poking events (mCMV [17]): Normal levels of exploratory activity were restored; decrease of virus bound to the cell surface versus control (hCMV [18]; 4° C.): 60%; CMV fusion/internalization (hCMV [18]; 37° C.): did not appear to block CMV fusion/internalization; beam traversal time and number of slips (mCMV [19]): significantly improved the coordination and balance; hCMV infectivity (GFP-positive cells) (hCMV [20]): substantially decreased hCMV infectivity
